pKi: −log10 of the molar value.
Biological target: T1, Equilibrative nucleoside transporter 1 (Homo sapiens, UniProt Q99808)
T1 sequence (Q99808 whole entry): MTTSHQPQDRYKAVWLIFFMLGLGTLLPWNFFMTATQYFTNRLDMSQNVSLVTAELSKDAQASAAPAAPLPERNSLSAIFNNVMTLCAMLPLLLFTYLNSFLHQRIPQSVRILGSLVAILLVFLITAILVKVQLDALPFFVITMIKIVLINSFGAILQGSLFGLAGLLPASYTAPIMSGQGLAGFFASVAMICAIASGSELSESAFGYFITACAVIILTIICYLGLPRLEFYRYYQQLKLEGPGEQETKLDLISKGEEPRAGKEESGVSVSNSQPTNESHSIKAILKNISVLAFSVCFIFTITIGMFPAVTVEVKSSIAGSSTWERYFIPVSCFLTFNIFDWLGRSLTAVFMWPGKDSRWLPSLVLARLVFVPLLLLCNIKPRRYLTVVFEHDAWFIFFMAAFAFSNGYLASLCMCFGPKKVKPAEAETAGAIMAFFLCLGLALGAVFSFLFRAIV
Experiment: Displacement of 5-(SAENTA)-X8-fluorescein from K562 cell nucleoside transporter
Type: cell-based

pKi | Compound
7.00 | OC[C@H]1O[C@@H](n2cnc3c(SCc4ccccc4Cl)ncnc32)[C@H](O)[C@@H]1O
8.04 | OC[C@H]1O[C@@H](n2cnc3c(SCc4ccc(F)cc4)ncnc32)[C@H](O)[C@@H]1O
8.00 | OC[C@H]1O[C@@H](n2cnc3c(SCc4ccc(Br)cc4)ncnc32)[C@H](O)[C@@H]1O
7.80 | OC[C@H]1O[C@@H](n2cnc3c(SCc4cccc(Cl)c4)ncnc32)[C@H](O)[C@@H]1O
7.86 | OC[C@H]1O[C@@H](n2cnc3c(SCc4cccc(I)c4)ncnc32)[C@H](O)[C@@H]1O
6.87 | OC[C@H]1O[C@@H](n2cnc3c(SCc4ccccc4Br)ncnc32)[C@H](O)[C@@H]1O
7.69 | OC[C@H]1O[C@@H](n2cnc3c(SCc4cccc(Br)c4)ncnc32)[C@H](O)[C@@H]1O
8.41 | OC[C@H]1O[C@@H](n2cnc3c(SCc4ccc(I)cc4)ncnc32)[C@H](O)[C@@H]1O
7.79 | OC[C@H]1O[C@@H](n2cnc3c(SCc4ccccc4I)ncnc32)[C@H](O)[C@@H]1O
7.95 | OC[C@H]1O[C@@H](n2cnc3c(SCc4cccc(F)c4)ncnc32)[C@H](O)[C@@H]1O
7.70 | OC[C@H]1O[C@@H](n2cnc3c(SCc4ccccc4F)ncnc32)[C@H](O)[C@@H]1O
7.85 | OC[C@H]1O[C@@H](n2cnc3c(SCc4ccc(Cl)cc4)ncnc32)[C@H](O)[C@@H]1O
